Here are results for 24 molecules from patent publication US8461328B2, “Tricyclic heterocyclic compounds, compositions and methods of use thereof” (Genentech, Inc., priority 2010, dated 2013).

Type in all cases: biochemical
In one assay the target is T1, TYK2 (Homo sapiens, UniProt P29597).
T1 construct: made in house; host or cells: SF9 insect cells (baculovirus)
T1 sequence (P29597 873-1187): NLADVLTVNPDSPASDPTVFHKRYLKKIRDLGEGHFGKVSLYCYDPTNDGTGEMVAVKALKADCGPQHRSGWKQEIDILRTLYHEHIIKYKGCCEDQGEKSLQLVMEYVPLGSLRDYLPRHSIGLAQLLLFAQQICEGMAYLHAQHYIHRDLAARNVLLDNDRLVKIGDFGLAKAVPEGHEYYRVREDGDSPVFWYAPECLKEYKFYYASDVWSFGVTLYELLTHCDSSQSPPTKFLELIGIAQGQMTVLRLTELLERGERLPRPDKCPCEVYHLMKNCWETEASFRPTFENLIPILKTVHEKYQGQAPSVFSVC
As to the kind of experiment: TYK2 inhibition (Table 4).

The target of the next assay is T2, JAK2 (Homo sapiens, UniProt O60674).
T2 construct: made in house; host or cells: SF9 insect cells (baculovirus)
T2 sequence (O60674 812-1132): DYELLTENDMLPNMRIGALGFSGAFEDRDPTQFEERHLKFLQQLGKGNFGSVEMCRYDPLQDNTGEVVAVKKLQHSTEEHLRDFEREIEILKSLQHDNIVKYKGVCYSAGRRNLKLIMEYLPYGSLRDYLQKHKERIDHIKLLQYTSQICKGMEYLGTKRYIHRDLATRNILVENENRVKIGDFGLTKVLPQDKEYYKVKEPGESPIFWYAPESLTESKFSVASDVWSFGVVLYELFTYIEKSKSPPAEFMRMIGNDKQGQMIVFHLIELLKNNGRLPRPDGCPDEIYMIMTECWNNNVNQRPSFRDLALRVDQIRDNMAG
As to the kind of experiment: JAK2 inhibition (Table 4). The following applies: read-out: JAK2 Ki.

For a further assay, the target named is T3, JAK1 (Homo sapiens, UniProt P23458).
T3 construct: made in house; host or cells: SF9 insect cells (baculovirus)
T3 sequence (P23458 852-1154): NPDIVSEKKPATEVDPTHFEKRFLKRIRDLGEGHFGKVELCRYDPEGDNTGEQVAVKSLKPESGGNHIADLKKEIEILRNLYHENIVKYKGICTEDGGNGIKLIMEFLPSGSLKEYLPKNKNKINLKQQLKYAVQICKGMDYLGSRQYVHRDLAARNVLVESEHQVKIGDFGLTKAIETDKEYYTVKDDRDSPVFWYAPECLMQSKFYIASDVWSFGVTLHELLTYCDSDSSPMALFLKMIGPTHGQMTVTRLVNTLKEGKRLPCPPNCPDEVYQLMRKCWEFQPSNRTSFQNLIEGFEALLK
The assay can be described thus: JAK1 inhibition (Table 4).

Another assay deals with T4, JAK3 (Homo sapiens, UniProt P52333).
T4 construct: made in house; host or cells: SF9 insect cells (baculovirus)
T4 sequence (P52333 783-1124): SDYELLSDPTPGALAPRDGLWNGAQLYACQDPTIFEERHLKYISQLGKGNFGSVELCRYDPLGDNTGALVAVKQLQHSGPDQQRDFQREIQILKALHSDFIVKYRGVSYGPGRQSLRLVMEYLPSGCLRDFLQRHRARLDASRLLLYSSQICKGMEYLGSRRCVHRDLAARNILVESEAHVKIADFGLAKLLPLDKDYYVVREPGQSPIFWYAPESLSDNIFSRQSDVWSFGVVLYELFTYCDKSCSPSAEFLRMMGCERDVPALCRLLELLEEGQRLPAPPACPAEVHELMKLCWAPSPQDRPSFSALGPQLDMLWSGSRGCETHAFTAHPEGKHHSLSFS
As to the kind of experiment: JAK3 inhibition (Table 4).

Like-named read-outs stand apart in the source and are kept apart here.

Consider `C[C@@H](O)c1nc2cnc3[nH]ccc3c2n1[C@H]1CC[C@H](N(C)CCC#N)CC1` [Example 616, Trans 3-({4-[2-((R)-1-hydroxy-ethyl)-6H-1,2,3,5,6-tetraaza-as-indacen-1-yl]-cyclohexyl}-methyl-amino)-propionitrile], for which the inhibition constant (Ki) – broadly, the dissociation constant of the complex between target and ligand, obtained from inhibition or displacement – was 12.1 nM at TYK2, 20 nM on JAK2, 4.49 nM on JAK1 (read-out: JAK1 Ki) and 84.3 nM on JAK3 (read-out: JAK3 Ki).

Regarding `C[C@@H](O)c1nc2cnc3[nH]ccc3c2n1[C@H]1CC[C@H](N(C)CC(F)(F)F)CC1` [Example 617, Trans (R)-1-(1-{4-[methyl-(2,2,2-trifluoro-ethyl)-amino]-cyclohexyl}-1,6-dihydro-1,2,3,5,6-tetraaza-as-indacen-2-yl)-ethanol], the Ki on TYK2 amounted to 22.3 nM; on JAK2 it was 38.7 nM; at JAK1 (read-out: JAK1 Ki), 11.9 nM; at JAK3 (read-out: JAK3 Ki), 147 nM.

On to `Cc1nc2cnc3[nH]ccc3c2n1[C@@H]1CC[C@@H](NC(=O)OC(C)(C)C)C1` [Example 623, [(1R,3R)-3-(2-Methyl-6H-1,2,3,5,6-tetraaza-as-indacen-1-yl)-cyclopentyl]-carbamic acid tert-butyl ester], for which the Ki on TYK2 came to 118 nM; on JAK2, 8.69 nM; on JAK1 (read-out: JAK1 Ki), 0.98 nM; at JAK3 (read-out: JAK3 Ki), 42.7 nM.

Consider `Cc1nc2cnc3[nH]ccc3c2n1[C@@H]1CC[C@@H](NC(=O)CC(F)(F)F)C1` [Example 624, 3,3,3-Trifluoro-N-[(1R,3R)-3-(2-methyl-6H-1,2,3,5,6-tetraaza-as-indacen-1-yl)-cyclopentyl]-propionamide], for which the inhibition constant (Ki) on TYK2 was found to be 63 nM; at JAK2, 10.2 nM; on JAK1 (read-out: JAK1 Ki) it was 2.23 nM; at JAK3 (read-out: JAK3 Ki), 13.9 nM.

Take `Cc1nc2cnc3[nH]ccc3c2n1[C@@H]1CC[C@@H](NC2COC2)C1` [Example 625, [(1R,3R)-3-(2-Methyl-6H-1,2,3,5,6-tetraaza-as-indacen-1-yl)-cyclopentyl]-oxetan-3-yl-amine]: the Ki on TYK2 is 218 nM; at JAK2 it was 99.7 nM; at JAK1 (read-out: JAK1 Ki) it was 33.9 nM; at JAK3 (read-out: JAK3 Ki), 169 nM.

As to `OC[C@H]1CC[C@H](n2cnc3cnc4[nH]ccc4c32)CC1` [Example 631, trans [4-(6H-1,2,3,5,6-Tetraaza-as-indacen-1-yl)-cyclohexyl]-methanol], the Ki on TYK2 amounted to 6.79 nM; at JAK2, 2.57 nM; on JAK1 (read-out: JAK1 Ki), 0.85 nM; on JAK3 (read-out: JAK3 Ki), 19.3 nM.

Regarding `Cc1nc2cnc3[nH]ccc3c2n1[C@H]1CC[C@H](CO)CC1` [Example 633, Trans[4-(2-methyl-6H-1,2,3,5,6-tetraaza-as-indacen-1-yl)-cyclohexyl]-methanol], the Ki at TYK2 came out at 6.08 nM; at JAK2 it was 3.31 nM; on JAK1 (read-out: JAK1 Ki) it was 1.19 nM; on JAK3 (read-out: JAK3 Ki), 12.1 nM.

Regarding `CO[C@H]1CC[C@H](n2c(CO)nc3cnc4[nH]ccc4c32)CC1` [Example 634, Trans[1-(4-Methoxy-cyclohexyl)-1,6-dihydro-1,2,3,5,6-tetraaza-as-indacen-2-yl]-methanol], the Ki at TYK2 was determined as 4.4 nM; on JAK2, 21.9 nM; on JAK1 (read-out: JAK1 Ki) it was 3.8 nM; on JAK3 (read-out: JAK3 Ki), 165 nM.

On to `COC[C@H]1CC[C@H](n2c(CO)nc3cnc4[nH]ccc4c32)CC1` [Example 636, Trans[1-(4-methoxymethyl-cyclohexyl)-1,6-dihydro-1,2,3,5,6-tetraaza-as-indacen-2-yl]-methanol], for which the Ki on TYK2 was determined as 6.5 nM; at JAK2, 15.6 nM; at JAK1 (read-out: JAK1 Ki) it was 3.82 nM; at JAK3 (read-out: JAK3 Ki) it was 28 nM.

Consider `COC[C@H]1CC[C@H](n2c([C@@H](C)O)nc3cnc4[nH]ccc4c32)CC1` [Example 637, Trans (R)-1-[1-(4-methoxymethyl-cyclohexyl)-1,6-dihydro-1,2,3,5,6-tetraaza-as-indacen-2-yl]-ethanol], for which the inhibitory constant (Ki) at TYK2 worked out at 7.42 nM; at JAK2 it was 35.6 nM; at JAK1 (read-out: JAK1 Ki), 1.89 nM; at JAK3 (read-out: JAK3 Ki), 37 nM.

`C[C@@H](O)c1nc2cnc3[nH]ccc3c2n1[C@H]1CC[C@H](OCC#N)CC1` [Example 639, Trans {4-[2-((R)-1-hydroxy-ethyl)-6H-1,2,3,5,6-tetraaza-as-indacen-1-yl]-cyclohexyloxy}-acetonitrile]: the inhibitory constant (Ki) on TYK2 was found to be 4.04 nM; at JAK2, 14.4 nM; at JAK1 (read-out: JAK1 Ki), 0.78 nM; on JAK3 (read-out: JAK3 Ki), 58.1 nM.

On to `N#C[C@H]1CC[C@H](n2cnc3cnc4[nH]ccc4c32)CC1` [Example 640, trans 4-(6H-1,2,3,5,6-Tetraaza-as-indacen-1-yl)-cyclohexanecarbonitrile], for which the Ki at TYK2 amounted to 25.1 nM; at JAK2, 9.66 nM; at JAK1 (read-out: JAK1 Ki), 3.93 nM; at JAK3 (read-out: JAK3 Ki) it was 82.7 nM.

Turning to `C[C@@H](O)c1nc2cnc3[nH]ccc3c2n1[C@H]1CC[C@H](C#N)CC1` [Example 641, trans 4-[2-((R)-1-Hydroxy-ethyl)-6H-1,2,3,5,6-tetraaza-as-indacen-1-yl]-cyclohexanecarbonitrile], the inhibition constant (Ki) turned out to be 12.4 nM on TYK2, 66.5 nM on JAK2, 1.87 nM on JAK1 (read-out: JAK1 Ki) and 254 nM on JAK3 (read-out: JAK3 Ki).

For `N#C[C@H]1CC[C@H](n2c(CO)nc3cnc4[nH]ccc4c32)CC1` [Example 642, Trans 4-(2-hydroxymethyl-6H-1,2,3,5,6-tetraaza-as-indacen-1-yl)cyclohexane carbonitrile], the Ki on TYK2 was determined as 7.22 nM; on JAK2, 20.9 nM; on JAK1 (read-out: JAK1 Ki), 2.06 nM; at JAK3 (read-out: JAK3 Ki) it was 185 nM.

As for `C[C@@H](O)c1nc2cnc3[nH]ccc3c2n1[C@H]1CC[C@H](CC#N)CC1` [Example 644, Trans {4-[2-((R)-1-Hydroxy-ethyl)-6H-1,2,3,5,6-tetraaza-as-indacen-1-yl]-cyclohexyl}-acetonitrile], the Ki at TYK2 stood at 0.36 nM; at JAK2, 0.81 nM; on JAK1 (read-out: JAK1 Ki), 0.12 nM; at JAK3 (read-out: JAK3 Ki), 5.31 nM.

Regarding `N#CC[C@H]1CC[C@H](n2c(CO)nc3cnc4[nH]ccc4c32)CC1` [Example 645, Trans[4-(2-hydroxymethyl-6H-1,2,3,5,6-tetraaza-as-indacen-1-yl)-cyclohexyl]-acetonitrile], the inhibition constant (Ki) on TYK2 was 0.25 nM; on JAK2 it was 0.39 nM; at JAK1 (JAK1 Ki), 0.13 nM; at JAK3 (JAK3 Ki) it was 3.56 nM.

For `N#CCC[C@H]1CC[C@H](n2c(CO)nc3cnc4[nH]ccc4c32)CC1` [Example 646, 3-[4-(2-hydroxymethyl-6H-1,2,3,5,6-tetraaza-as-indacen-1-yl)-cyclohexyl]-propionitrile], the inhibitory constant (Ki) worked out at 1.49 nM at TYK2, 2.05 nM at JAK2, 0.53 nM on JAK1 (read-out: JAK1 Ki) and 9.11 nM at JAK3 (read-out: JAK3 Ki).

For `C[C@@H](O)c1nc2cnc3[nH]ccc3c2n1[C@H]1CC[C@H](S(C)(=O)=O)CC1` [Example 650, Trans (R)-1-[1-(4-methanesulfonyl-cyclohexyl)-1,6-dihydro-1,2,3,5,6-tetraaza-as-indacen-2-yl]-ethanol], the inhibitory constant (Ki) is 52 nM on TYK2, 113 nM at JAK2, 10.5 nM on JAK1 (read-out: JAK1 Ki) and 756 nM on JAK3 (read-out: JAK3 Ki).

On to `CS(=O)(=O)[C@H]1CC[C@H](n2c(CO)nc3cnc4[nH]ccc4c32)CC1` [Example 651, Trans[1-(4-Methanesulfonyl-cyclohexyl)-1,6-dihydro-1,2,3,5,6-tetraaza-as-indacen-2-yl]-methanol], for which the inhibition constant Ki on TYK2 is 34.8 nM; on JAK2, 42.5 nM; at JAK1 (read-out: JAK1 Ki), 9.87 nM; on JAK3 (read-out: JAK3 Ki), 430 nM.

As for `CS(=O)(=O)CC[C@H]1CC[C@H](n2c(CO)nc3cnc4[nH]ccc4c32)CC1` [Example 652, Trans {1-[4-(2-methanesulfonyl-ethyl)-cyclohexyl]-1,6-dihydro-1,2,3,5,6-tetraaza-as-indacen-2-yl}-methanol], the Ki on TYK2 amounted to 3.7 nM; on JAK2, 4.38 nM; at JAK1 (read-out: JAK1 Ki), 0.81 nM; at JAK3 (read-out: JAK3 Ki), 39 nM.

In the case of `C[C@@H](O)c1nc2cnc3[nH]ccc3c2n1[C@H]1CC[C@@H](n2cncn2)CC1` [Example 653, Cis (R)-1-[1-(4-[1,2,4]triazol-1-yl-cyclohexyl)-1,6-dihydro-1,2,3,5,6-tetraaza-as-indacen-2-yl]-ethanol], the Ki was determined as 5.28 nM at TYK2, 24.7 nM on JAK2, 0.88 nM on JAK1 (read-out: JAK1 Ki) and 1.31 nM at JAK3 (read-out: JAK3 Ki).

For `COc1nc2cnc3[nH]ccc3c2n1C1CCN(CCC#N)CC1` [Example 655, 3-[4-(2-Methoxy-6H-1,2,3,5,6-tetraaza-as-indacen-1-yl)-piperidin-1-yl]-propionitrile], the Ki turned out to be 4.67 nM on TYK2, 1.08 nM at JAK2, 0.46 nM at JAK1 (read-out: JAK1 Ki) and 15.9 nM on JAK3 (read-out: JAK3 Ki).

Regarding `CN(C)c1nc2cnc3[nH]ccc3c2n1C1CCN(CCC#N)CC1` [Example 656, 3-[4-(2-Dimethylamino-6H-1,2,3,5,6-tetraaza-as-indacen-1-yl)-piperidin-1-yl]-propionitrile], the Ki on TYK2 is 420 nM; at JAK2, 77 nM; at JAK1 (read-out: JAK1 Ki) it was 14.6 nM; on JAK3 (read-out: JAK3 Ki) it was 37.7 nM.

As for `CNc1nc2cnc3[nH]ccc3c2n1C1CCN(CC(F)(F)F)CC1` [Example 658, Methyl-{1-[1-(2,2,2-trifluoro-ethyl)-piperidin-4-yl]-1,6-dihydro-1,2,3,5,6-tetraaza-as-indacen-2-yl}-amine], the inhibition constant (Ki) on TYK2 was found to be 67.4 nM; at JAK2 it was 13.6 nM; on JAK1 (read-out: JAK1 Ki), 3.51 nM; on JAK3 (read-out: JAK3 Ki) it was 34.2 nM.
